# Literature values in patent US6437103B1, “Fatty acid analogs for diagnosis of coronary artery disease” (Biostream Inc., priority 1999, dated 2002).
# Tested on: myocardium
# Settings: background statement citing Goodman et al. 1984; Liefhold and Eisenhut 1986
smiles,measurement,value
O=C(O)CCCCCCCCCCCCCCc1ccc(I)cc1 [15-(p-iodophenyl)pentadecanoic acid],myocardial uptake,moderate
